Assays:
[1] = system: tau accumulated in the brain with AD; assay: In vitro autoradiography using autopsied brain tissue of Alzheimer's disease patient; type: binding, human; conditions: for radioactivity accumulation in the brain tissue section of the frontal lobe / radioactivity accumulation in the brain tissue section of the temporal lobe: AD patient autopsied brain section, 370 kBq/mL, 2 hours room temperature; for nonspecific binding to the brain white matter: AD patient autopsied brain sections; for visualization of tau (autoradiography compared with tau and Aβ immunostaining): AD patient temporal lobe section, adjacent sections immunostained (AT8, BC05)
Description: (Evaluation 1) In Vitro Autoradiography Using Autopsied Brain Tissue of Alzheimer's Disease Patient (1) In Vitro Autoradiography
Autopsied brain tissue sections of an Alzheimer's disease (AD) patient (sections from a frontal lobe site and a temporal lobe site, 6 μm) were used, which were provided from Graduate School of Medicine, Kyoto University and National Cerebral and Cardiovascular Center Hospital. Deparaffinization treatment was performed by washing with xylene (15 min×2), ethanol (1 min×2), a 90 vol % aqueous ethanol solution (1 min×1), an 80 vol % aqueous ethanol solution (1 min×1), a 70 vol % aqueous ethanol solution (1 min×1), and purified water (2.5 min×2). A 10 vol % aqueous ethanol solution of each radioactive iodine-labeled BIP derivative compound (370 kBq/mL) obtained by the method shown in Example 7 was added thereto, and the tissue sections were incubated at room temperature for 2 hours. The tissue sections were washed with a 50 vol % aqueous ethanol solution (1 hr×1), then exposed to an imaging plate (BAS-SR2025 manufactured by Fujifilm Corp.), and analyzed using a bioimaging analyzer (bioimaging analyzer BAS-5000 manufactured by Fujifilm Corp.). Multi Gauge manufactured by Fujifilm Corp. was used in quantitative analysis.
FIGS. 5E and 5F show the results obtained using [^125I]BIP-NMe2. FIGS. 5G and 5H show the results obtained using [^125I]BIP-OMe. FIGS. 5I and 5J show the results obtained using [^125I]BIP-Me. FIGS. 5E, 5G, and 5I show the results obtained using the brain tissue section of the frontal lobe. FIGS. 5F, 5H, and 5J show the results obtained using the brain tissue section of the temporal lobe.
Tau and Aβ were immunostained using sections adjacent to the autopsied AD brain tissue sections used in autoradiography. An anti-phosphorylated tau monoclonal antibody (AT8, manufactured by Thermo Fisher Scientific Inc.) was used as a primary antibody in the immunostaining of tau, and an anti-Aβ1-42 monoclonal antibody (BC05, manufactured by Wako Pure Chemical Industries, Ltd.) was used as a primary antibody in the immunostaining of Aβ. Deparaffinization treatment was performed by washing with xylene (15 min×2), ethanol (1 min×2), a 90 vol % aqueous ethanol solution (1 min×1), an 80 vol % aqueous ethanol solution (1 min×1), a 70 vol % aqueous ethanol solution (1 min×1), and purified water (2.5 min×2). The antigens were retrieved by autoclaving (15 min) in a 0.01 mol/L citrate buffer solution (pH 6.0) and formic acid treatment (5 min). The tissue sections were washed with running water (5 min) and then washed with PBS-Tween 20 (2 min×1). The tissue sections were reacted with primary antibody solutions at room temperature for 1 hour and then washed with PBS-Tween 20 (5 min×3). The tissue sections were reacted with Histofine Simple Stain MAX-PO (MULTI) (manufactured by Nichirei Biosciences Inc.) at room temperature for 30 minutes and then washed with PBS-Tween 20 (3 min×3) and TBS (5 min×1). Finally, the tissue sections were reacted with a DAB solution at room temperature for 1 minute. The tissue sections were washed with distilled water (1 min×1) to terminate the reaction. The brain tissue sections were mounted on slides and then observed under a microscope (BZ-9000 manufactured by Keyence Corporation).
FIGS. 5A and 5B show the results obtained using the brain tissue section of the frontal lobe. FIGS. 5C and 5D show the results obtained using the brain tissue section of the temporal lobe. FIGS. 5A and 5C show the results of immunostaining with the antibody against tau. FIGS. 5B and 5D show the results of immunostaining with the antibody against Aβ.

[2] = Evaluation of in vivo radioactivity distribution in normal mouse; conditions: normal ddY male mice, tail vein; for radioactivity distribution, Blood / radioactivity distribution, Brain / radioactivity distribution, Heart / radioactivity distribution, Intestine / radioactivity distribution, Kidney / radioactivity distribution, Liver / radioactivity distribution, Lung / radioactivity distribution, Pancreas / radioactivity distribution, Spleen / radioactivity distribution, Stomach / radioactivity distribution, Thyroid gland: mean (SD)
Description: (Evaluation 2) Evaluation of In Vivo Radioactivity Distribution in Normal Mouse
Each compound of [^125I]BIP-NMe2, [^125I]BIP-OMe, and [^125I]BIP-Me synthesized according to the method shown in Example 7 was diluted with saline containing 10 vol % ethanol and 0.1 vol % Tween 80. Each radioactive iodine-labeled BIP derivative compound was administered to a group of 5-week-old ddY male mice (26 to 28 g; each group involved 5 mice) from the tail veins thereof at 19.6 to 29.4 kBq (100 μL) per mouse. After 2, 10, 30, or 60 minutes, the mice were slaughtered. After blood collection, the organs were taken out, and their weights and radioactivity were measured.
In Tables 2 to 4, the numerical values shown in the column “Time after administration” are means of % ID for the stomach and the thyroid gland and means of % ID/g for the other tissues with standard deviation (SD) shown in parenthesis.

## CN(C)c1ccn2c(c1)nc1cc([125I])ccc12 [[^125I]BIP-NMe2, 7-[^125I]iodo-3-dimethylaminopyrido[1,2-a]benzimidazole]
[1]
  radioactivity accumulation in the brain tissue section of the frontal lobe: none
  radioactivity accumulation in the brain tissue section of the temporal lobe: exhibited radioactivity accumulation in only the brain tissue section of the temporal lobe
  nonspecific binding to the brain white matter: low
  visualization of tau (autoradiography compared with tau and Aβ immunostaining): clearly visualizes tau accumulated in the brain with AD
[2]
  clearance from the brain: rapid clearance from the brain
  transfer to the brain early after administration: high transfer to the brain
[2]; 2 min after administration
  radioactivity distribution, Blood: 2.91(0.75) % ID/g
  radioactivity distribution, Brain: 3.98(0.32) % ID/g
  radioactivity distribution, Heart: 6.38(1.09) % ID/g
  radioactivity distribution, Intestine: 3.07(0.52) % ID/g
  radioactivity distribution, Kidney: 14.3(1.91) % ID/g
  radioactivity distribution, Liver: 9.78(2.50) % ID/g
  radioactivity distribution, Lung: 8.80(1.70) % ID/g
  radioactivity distribution, Pancreas: 5.66(1.03) % ID/g
  radioactivity distribution, Spleen: 2.97(0.92) % ID/g
  radioactivity distribution, Stomach: 1.71(0.43) % ID
  radioactivity distribution, Thyroid gland: 0.05(0.03) % ID
[2]; 10 min after administration
  radioactivity distribution, Blood: 1.48(0.18) % ID/g
  radioactivity distribution, Brain: 1.66(0.16) % ID/g
  radioactivity distribution, Heart: 2.53(0.24) % ID/g
  radioactivity distribution, Intestine: 7.45(0.50) % ID/g
  radioactivity distribution, Kidney: 17.0(1.70) % ID/g
  radioactivity distribution, Liver: 18.1(0.53) % ID/g
  radioactivity distribution, Lung: 3.59(0.43) % ID/g
  radioactivity distribution, Pancreas: 4.77(0.27) % ID/g
  radioactivity distribution, Spleen: 5.15(0.84) % ID/g
  radioactivity distribution, Stomach: 3.30(0.49) % ID
  radioactivity distribution, Thyroid gland: 0.03(0.01) % ID
[2]; 30 min after administration
  radioactivity distribution, Blood: 1.18(0.26) % ID/g
  radioactivity distribution, Brain: 0.38(0.03) % ID/g
  radioactivity distribution, Heart: 1.00(0.15) % ID/g
  radioactivity distribution, Intestine: 14.5(3.43) % ID/g
  radioactivity distribution, Kidney: 7.45(1.11) % ID/g
  radioactivity distribution, Liver: 12.7(1.35) % ID/g
  radioactivity distribution, Lung: 1.77(0.31) % ID/g
  radioactivity distribution, Pancreas: 1.51(0.19) % ID/g
  radioactivity distribution, Spleen: 2.97(0.44) % ID/g
  radioactivity distribution, Stomach: 6.35(1.13) % ID
  radioactivity distribution, Thyroid gland: 0.02(0.01) % ID
[2]; 60 min after administration
  radioactivity distribution, Blood: 0.93(0.23) % ID/g
  radioactivity distribution, Brain: 0.16(0.01) % ID/g
  radioactivity distribution, Heart: 0.63(0.05) % ID/g
  radioactivity distribution, Intestine: 23.5(3.65) % ID/g
  radioactivity distribution, Kidney: 5.45(1.90) % ID/g
  radioactivity distribution, Liver: 5.82(0.91) % ID/g
  radioactivity distribution, Lung: 0.99(0.07) % ID/g
  radioactivity distribution, Pancreas: 0.80(0.15) % ID/g
  radioactivity distribution, Spleen: 1.97(0.25) % ID/g
  radioactivity distribution, Stomach: 7.59(1.39) % ID
  radioactivity distribution, Thyroid gland: 0.01(0.00) % ID

## Cc1ccn2c(c1)nc1cc([125I])ccc12 [[^125I]BIP-Me, 7-[^125I]iodo-3-methylbenzo[4,5]imidazo[1,2-a]pyridine]
[1]
  radioactivity accumulation in the brain tissue section of the frontal lobe: none
  radioactivity accumulation in the brain tissue section of the temporal lobe: exhibited radioactivity accumulation in only the brain tissue section of the temporal lobe
  nonspecific binding to the brain white matter: low
  visualization of tau (autoradiography compared with tau and Aβ immunostaining): clearly visualizes tau accumulated in the brain with AD
[2]
  clearance from the brain: rapid clearance from the brain
  transfer to the brain early after administration: high transfer to the brain
[2]; 2 min after administration
  radioactivity distribution, Blood: 3.63(0.19) % ID/g
  radioactivity distribution, Brain: 4.28(0.50) % ID/g
  radioactivity distribution, Heart: 4.40(0.59) % ID/g
  radioactivity distribution, Intestine: 3.38(0.55) % ID/g
  radioactivity distribution, Kidney: 7.32(0.61) % ID/g
  radioactivity distribution, Liver: 19.7(2.89) % ID/g
  radioactivity distribution, Lung: 6.54(0.76) % ID/g
  radioactivity distribution, Pancreas: 3.85(0.39) % ID/g
  radioactivity distribution, Spleen: 4.22(0.43) % ID/g
  radioactivity distribution, Stomach: 2.68(0.25) % ID
  radioactivity distribution, Thyroid gland: 0.06(0.03) % ID
[2]; 10 min after administration
  radioactivity distribution, Blood: 2.37(0.22) % ID/g
  radioactivity distribution, Brain: 0.94(0.17) % ID/g
  radioactivity distribution, Heart: 1.61(0.19) % ID/g
  radioactivity distribution, Intestine: 14.2(5.56) % ID/g
  radioactivity distribution, Kidney: 6.75(0.83) % ID/g
  radioactivity distribution, Liver: 13.7(1.67) % ID/g
  radioactivity distribution, Lung: 2.37(0.31) % ID/g
  radioactivity distribution, Pancreas: 1.38(0.29) % ID/g
  radioactivity distribution, Spleen: 1.94(0.29) % ID/g
  radioactivity distribution, Stomach: 6.52(1.23) % ID
  radioactivity distribution, Thyroid gland: 0.03(0.02) % ID
[2]; 30 min after administration
  radioactivity distribution, Blood: 1.53(0.52) % ID/g
  radioactivity distribution, Brain: 0.14(0.03) % ID/g
  radioactivity distribution, Heart: 0.66(0.10) % ID/g
  radioactivity distribution, Intestine: 19.5(2.03) % ID/g
  radioactivity distribution, Kidney: 4.05(1.19) % ID/g
  radioactivity distribution, Liver: 7.32(0.71) % ID/g
  radioactivity distribution, Lung: 1.14(0.11) % ID/g
  radioactivity distribution, Pancreas: 0.50(0.08) % ID/g
  radioactivity distribution, Spleen: 0.60(0.13) % ID/g
  radioactivity distribution, Stomach: 7.05(2.50) % ID
  radioactivity distribution, Thyroid gland: 0.02(0.00) % ID
[2]; 60 min after administration
  radioactivity distribution, Blood: 0.77(0.12) % ID/g
  radioactivity distribution, Brain: 0.04(0.00) % ID/g
  radioactivity distribution, Heart: 0.36(0.07) % ID/g
  radioactivity distribution, Intestine: 28.7(5.09) % ID/g
  radioactivity distribution, Kidney: 2.19(1.23) % ID/g
  radioactivity distribution, Liver: 4.69(0.54) % ID/g
  radioactivity distribution, Lung: 0.65(0.11) % ID/g
  radioactivity distribution, Pancreas: 0.40(0.24) % ID/g
  radioactivity distribution, Spleen: 0.36(0.10) % ID/g
  radioactivity distribution, Stomach: 7.43(1.29) % ID
  radioactivity distribution, Thyroid gland: 0.01(0.00) % ID

Reference: US10081630B2, “Radioactive halogen-labeled pyrido [1,2-A] benzimidazole derivative compound” (KYOTO UNIVERSITY, priority 2015, dated 2018)
